Here are results for one molecule from PMC3254698 (Bioorganic & medicinal chemistry letters, 2008).

The target of this assay is presenilin-1 (Homo sapiens, UniProt P49768). The format is biochemical.

One may read the IC50 as the point on the concentration scale where inhibition reaches its midpoint.

`CC(C)C[C@H](NC(=O)[C@H](Cc1ccccc1)C[C@@H](O)[C@H](Cc1ccc(C(=O)c2ccccc2)cc1)NC(=O)OC(C)(C)C)C(=O)N[C@@H](Cc1ccccc1)C(=O)NCCCCCNC(=O)CCCC[C@@H]1SC[C@@H]2NC(=O)N[C@@H]21` [compound 3] gave an IC50 of 0.6 nM.
